# Data: paper PMC3586934 (Anesthesiology, 2012)
# Where two headings read alike, the source gives them in different places.
# Key:
# [1] = cited from earlier work
# [2] = Intravenous; conditions: for Cmax / AUC(0-t) / AUC(0-inf): both, human, in vivo; for AUC(0-t): AUC0-96, oral methadone; for AUC(0-inf): AUC0-∞; for AUC(0-inf) / Foral: oral methadone
# [3] = system: CYP2B6; conditions: cited from earlier work
# [4] = both, human, in vivo, iv
# [5] = system: CYP3A4; conditions: cited from earlier work
# [6] = system: healthy volunteers; conditions: 6.0 mg intravenous plus 11.0 mg oral methadone HCl
# [7] = cited from earlier work; remark: listed apart in the source
# [8] = system: P-gp; conditions: rats; cited from earlier work
# [9] = system: CYP3A; conditions: human, in vivo; cited from earlier work
# [10] = system: P-gp; conditions: cited from earlier work
smiles,measurement,setting,value
O=C1Nc2ccc(Cl)cc2[C@@](C#CC2CC2)(C(F)(F)F)O1 [efavirenz],"methadone clearance, change",[1],doubled
CC(C)c1nc(CN(C)C(=O)N[C@H](C(=O)N[C@@H](Cc2ccccc2)C[C@H](O)[C@H](Cc2ccccc2)NC(=O)OCc2cncs2)C(C)C)cs1 [ritonavir],"methadone clearance, change",[1],doubled
CCC(=O)C(C[C@H](C)N(C)C)(c1ccccc1)c1ccccc1 [S-methadone],Cmax,"[2]; iv, 6 mg",83 ± 39 ng/mL
same,Cmax,"[2]; po, 11 mg",30 ± 10 ng/mL
same,AUC(0-t),"[2]; po, 11 mg, control",688 ± 169 ng·h/mL
same,AUC(0-inf),"[2]; po, 11 mg, control",780 ± 200 ng·h/mL
same,AUC(0-t),"[2]; po, after indinavir",685 ± 131 ng·h/mL
same,AUC(0-inf),"[2]; po, after indinavir",805 ± 194 ng·h/mL
same,Foral,[2]; after indinavir,0.90 ± 0.11
same,Foral,[2]; control,0.87 ± 0.10
same,Km,[3],16 µM
same,EH,[4],0.06 ± 0.02
same,Km,[5],149 µM
CCC(=O)C(CC(C)N(C)C)(c1ccccc1)c1ccccc1 (stereo not shown) [methadone],AUEC0-∞,[6]; after indinavir,96± 56 mm•hr
same,Maximum miosis,[6]; after indinavir,3.6 ± 1.0 mm
same,AUEC0-∞,[6]; control,87 ± 66 mm•hr
same,Maximum miosis,[6]; control,3.6 ± 1.0 mm
same,FG predicted,[7],0.97
same,"FG, average in several investigations",[7],0.96
same,"EH, average",[7]; intravenous methadone,0.09
same,fhep,[7]; intravenous methadone,0.76
C/C=C/C[C@@H](C)C(=O)[C@H]1C(=O)N[C@@H](C(C)C)C(=O)N(C)CC(=O)N(C)[C@@H](CC(C)C)C(=O)N[C@@H](C(C)C)C(=O)N(C)[C@@H](CC(C)C)C(=O)N[C@@H](C)C(=O)N[C@H](C)C(=O)N(C)[C@@H](CC(C)C)C(=O)N(C)[C@@H](CC(C)C)C(=O)N(C)[C@@H](C(C)C)C(=O)N1C [valspodar],"oral methadone bioavailability, change",[8],increased
Cc1c(O)cccc1C(=O)N[C@@H](CSc1ccccc1)[C@H](O)CN1C[C@H]2CCCC[C@H]2C[C@H]1C(=O)NC(C)(C)C [nelfinavir],inhibition of first-pass CYP3A,[9],> 75%
same,inhibition of hepatic CYP3A,[9],50%
same,"fexofenadine Cmax, change",[10],decreased
C[C@@H](c1ncncc1F)[C@](O)(Cn1cncn1)c1ccc(F)cc1F [voriconazole],"R-methadone AUC, increase",[1],47%
same,"S-methadone AUC, increase",[1],103%
CO[C@H]1/C=C/O[C@@]2(C)Oc3c(C)c(O)c4c(O)c(c(/C=N/N5CCN(C)CC5)c(O)c4c3C2=O)NC(=O)/C(C)=C\C=C\[C@H](C)[C@H](O)[C@@H](C)[C@@H](O)[C@@H](C)[C@H](OC(C)=O)[C@@H]1C [rifampin],"methadone clearance, change",[1],doubled
